Data on six compounds can be found in patent US5919824A, “Aminophenol derivatives” (Daiichi Pharmaceutical Co., Ltd., priority 1995, dated 1999).

Assay [1] concerns the target T1, human CCK-B/gastrin receptor (Homo sapiens, UniProt P32239).
T1 construct: expressed in transfected cells; host or cells: CHO cells (Chinese hamster ovary)
T1 sequence (P32239 1-447): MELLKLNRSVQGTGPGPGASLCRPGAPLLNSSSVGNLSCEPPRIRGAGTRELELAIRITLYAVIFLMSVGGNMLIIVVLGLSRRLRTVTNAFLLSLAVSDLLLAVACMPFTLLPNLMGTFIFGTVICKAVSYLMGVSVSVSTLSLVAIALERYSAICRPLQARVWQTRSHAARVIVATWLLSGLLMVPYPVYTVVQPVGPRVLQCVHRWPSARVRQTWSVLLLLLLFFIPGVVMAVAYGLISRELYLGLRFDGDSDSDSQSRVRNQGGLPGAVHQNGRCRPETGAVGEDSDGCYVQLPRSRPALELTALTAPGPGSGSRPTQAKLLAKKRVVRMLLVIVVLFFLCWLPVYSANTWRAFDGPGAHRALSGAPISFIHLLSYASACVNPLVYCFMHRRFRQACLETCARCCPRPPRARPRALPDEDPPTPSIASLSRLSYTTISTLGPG
In words: Inhibition of binding against gastrin receptor (125I-gastrin, CHO cells). Particulars: [125I]gastrin 25 pM, CHO cells expressing human CCK-B/gastrin receptor, 37° C. On the procedure: (§1) Separation of human CCK-B/gastrin receptor cDNA clone, separation of human CCK-A receptor cDNA clone, and expression of respective cloned receptors in heterologous cells.
(§2) cDNA of human CCK-B/gastrin receptor cDNA (Pisegna et al.: Biochem. Biophys. Res. Commun., 189, 296-303, 1992) and human CCK-A receptor cDNA (Ulrich et al.: Biochem. Biophys. Res. Commun., 193, 204-211, 1993) have already been isolated. The cDNAs having the reported nucleotide sequences were prepared using routine genetic engineering techniques. The isolated human CCK-B/gastrin receptor cDNA or human CCK-A receptor cDNA was integrated in an expression vector using routine genetic engineering techniques and transfected to CHO cells derived from the Chinese hamster ovary so as to induce expression of respective receptors.
The compounds of the present invention were evaluated by the receptor-binding assay using ^125 I-gastrin and human CCK-B/gastrin receptor expressed in CHO cells. CHO cells expressing the human CCK-B/gastrin receptor were cultured using a Dulbecco's modified Eagle minimum essential medium: nutrient mixture F-12 (hereinafter abbreviated as DMEM/F-12) containing 10% fetal bovine serum at 37° C. in an aerobic phase of 5% CO2 and 95% air. Using a culture dish having a diameter of 16 mm (base area: 2 cm^2), the cells were cultured so as to obtain 5×10^5 cells. The cells were washed with a binding buffer (Earle's balanced salt solution containing 10 mM 4-(2-hydroxyethyl)-1-piperazine ethanesulfonic acid (HEPES) (pH 7.4), 0.1% bovine serum albumin, 2 mM glutamine, and 0.22% sodium hydrogen carbonate) twice, after which a binding buffer (0.5 ml) was added to the dish. To this binding buffer, a test compound (5 μl) dissolved in dimethylsulfoxide (DMSO) was added. The reaction was then allowed to start by adding 0.01 ml (final concentration: 25 pM) of [^125 I]gastrin. When a nonspecific binding amount was obtained, reaction was carried out in the presence of 1 μM of non-labelled gastrin. Reaction was allowed to proceed at 37° C. in an aerobic phase of 5% CO2 and 95% air, after which the cells were washed with phosphate-buffered saline (PBS). [^125 I]gastrin which had not been bound to the cells was removed, and the cells were lysed by adding 1% Triton X-100 (250 μl) to the dish. Radioactivity of this solution was measured by a gamma counter. A specific binding amount was obtained by subtracting a nonspecific binding amount from a total binding amount. Using the thus-obtained specific binding amount, the percentage of the value obtained from a test substance addition group with respect to that of the DMSO addition group was calculated. The percentage was subjected to Hill conversion and then a least squares method, obtaining a 50% inhibitory concentration (IC50).

In assay [2] the target is T2, human CCK-A receptor (Homo sapiens, UniProt P32238).
T2 construct: expressed in transfected cells; host or cells: CHO cells (Chinese hamster ovary)
T2 sequence (P32238 1-428): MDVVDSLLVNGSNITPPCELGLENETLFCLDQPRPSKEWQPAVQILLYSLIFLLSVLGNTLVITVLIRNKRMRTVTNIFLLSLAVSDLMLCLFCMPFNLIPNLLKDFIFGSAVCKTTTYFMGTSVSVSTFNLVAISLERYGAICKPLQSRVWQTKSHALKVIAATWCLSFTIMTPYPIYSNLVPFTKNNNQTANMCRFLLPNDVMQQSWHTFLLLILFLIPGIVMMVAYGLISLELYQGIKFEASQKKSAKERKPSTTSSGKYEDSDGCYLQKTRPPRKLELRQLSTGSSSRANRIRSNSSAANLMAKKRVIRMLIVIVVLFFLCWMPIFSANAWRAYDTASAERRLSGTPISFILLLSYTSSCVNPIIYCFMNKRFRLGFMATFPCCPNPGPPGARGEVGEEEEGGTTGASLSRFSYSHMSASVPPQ
Put plainly: Inhibition of binding against CCK-A receptor (125I-CCK8, CHO cells). The settings on record: for receptor selectivity (IC50 ratio of CCK-A/gastrin): factor; for IC50: [125I]CCK8 25 pM, CHO cells expressing human CCK-A receptor, 37° C. On the procedure:
as §1, §2
Test method: The compounds of the present invention were evaluated by the receptor-binding assay using ^125 I-gastrin and human CCK-B/gastrin receptor expressed in CHO cells. CHO cells expressing a human CCK-A receptor were cultured using a DMEM/F-12 containing 10% fetal bovine serum at 37° C. in an aerobic phase of 5% CO2 and 95% air. Using a culture dish having a diameter of 16 mm (base area: 2 cm^2), the cells were cultured so as to obtain 5×10^5 cells. The cells were washed with a binding buffer (Earle's balanced salt solution containing 10 mM HEPES (pH 7.4), 0.1% bovine serum albumin, 2 mM glutamine, and 0.22% sodium hydrogen carbonate) twice, after which a binding buffer (0.5 ml) was added to the dish. To this binding buffer, a test compound (5 μl) dissolved in DMSO was added. The reaction was then allowed to start by adding 0.01 ml (final concentration: 25 pM) of [^125 I]CCK8. When a nonspecific binding amount was obtained, reaction was carried out in the presence of 1 μM of non-labelled CCK-8. Reaction was allowed to proceed at 37° C. in an aerobic phase of 5% CO2 and 95% air, after which the cells were washed with PBS. [^125 I]CCK8 which had not been bound to the cells was removed, and the cells were lysed by adding 1% Triton X-100 (250 μl) to the dish. Radioactivity of this solution was measured by a gamma counter. A specific binding amount was obtained by subtracting a nonspecific binding amount from a total binding amount. Using the thus-obtained specific binding amount, the percentage of the value obtained from a test substance addition group with respect to that of the DMSO addition group was calculated. The percentage was subjected to Hill conversion and then to a least squares method, obtaining a 50% inhibitory concentration (IC50).

In assay [1], `COc1cccc(N(CC(=O)N(C)c2ccccc2)C(=O)CNC(=O)Nc2cccc(C(C)S(=O)(=O)O)c2)c1` (racemic) [Control compound A, potassium (±)-1-[3-[3-[N-(3-methoxyphenyl-N-(N-methyl-N-phenylcarbomoylmethyl)-carbamoylmethyl]ureido]phenylethane sulfonate, reference compound] yielded an IC50 of 6.5 nM. For the same compound, in assay [2], the “receptor selectivity (IC50 ratio of CCK-A/gastrin)” value amounted to 238 and the IC50 turned out to be 1480 nM.
Regarding `Cc1cccc(N(C)C(=O)COc2ccccc2N(CC(=O)N(C)c2ccccc2)C(=O)CNC(=O)Nc2cccc(CC(=O)O)c2)c1` [Example 73, 2-[3-[3-[N-[2-[N-Methyl-N-(3-methylphenyl)carbamoylmethyloxy]phenyl]-N-(N-methyl-N-phenylcarbamoylmethyl)carbamoylmethyl]ureido]phenyl]acetic acid], in assay [1], the IC50 is 1.9 nM.
In turn, `COc1cccc(N(C)C(=O)COc2ccccc2N(CC(=O)N(C)c2ccccc2)C(=O)CNC(=O)Nc2cccc(CC(=O)O)c2)c1` [Example 87, 2-[3-[3-[N-[2-[N-(3-Methoxyphenyl)-N-methylcarbamoylmethyloxy]phenyl]-N-(N-methyl-N-phenylcarbamoylmethyl)carbamoylmethyl]ureido]phenyl]acetic acid] returned an IC50 in assay [1] of 0.87 nM. Moreover, in assay [2], the “receptor selectivity (IC50 ratio of CCK-A/gastrin)” value came to 3654 and the IC50 was 3180 nM.
In turn, `Cc1ccccc1N(C)C(=O)COc1cccc(N(CC(=O)N(C)c2ccccc2)C(=O)CNC(=O)Nc2cccc(C(C)C(=O)O)c2)c1` (racemic) [Example 79, (±)-2-[3-[3-[N-[3-[N-Methyl-N-(2-methylphenyl)carbamoylmethyloxy]phenyl]-N-(N-methyl-N-phenylcarbamoylmethyl)carbamoylmethyl]ureido]phenyl]propionic acid] yielded an IC50 in assay [1] of 1.6 nM.
In turn, `Cc1cc(C)cc(N(C)C(=O)COc2ccccc2N(CC(=O)N(C)c2ccccc2)C(=O)CNC(=O)Nc2cccc(C(C)C(=O)O)c2)c1` (racemic) [Example 92, Sodium (±)-2-[3-[3-[N-[2-[N-methyl-N-(3,5-dimethylphenyl)carbamoylmethyloxy]phenyl]-N-(N-methyl-N-phenylcarbamoylmethyl)carbamoylmethyl]ureido]phenyl]sodium propionate] came in with an IC50 in assay [1] of 0.5 nM. Moreover, in assay [2], the “receptor selectivity (IC50 ratio of CCK-A/gastrin)” value is 7280 and the IC50 worked out at 3640 nM.
As for `COc1cccc(N(C)C(=O)COc2ccccc2N(CC(=O)N(C)c2ccccc2)C(=O)CNC(=O)Nc2cccc(C(C)C(=O)O)c2)c1` (racemic) [Example 86, (±)-2-[3-[3-[N-[2-[N-(3-Methoxyphenyl)-N-methylcarbamoylmethyloxy]phenyl]-N-(N-methyl-N-phenylcarbamoylmethyl)carbamoylmethyl]ureido]phenyl]propionic acid], the IC50 in assay [1] amounted to 1 nM.
